The MIC is the smallest concentration in the dilution series that meets the test's criterion for growth inhibition.

20 compounds from ChEMBL document CHEMBL1177809, “Motualevic acids and analogs: synthesis and antimicrobial structure-activity relationships” (2010) can be followed below.

In brackets after ≈: the same amount, converted by molar mass. Activity calls are given as the source filed them.

Assay [1] concerns Staphylococcus aureus. Put plainly: Antibacterial activity against Staphylococcus aureus at 50 ug/disk by agar disk diffusion assay. The assay is classed as functional. The settings on record: for zone of inhibition at 50 µg/disc: read-out: IZ. (In general: Agar diffusion results depend on both activity and mobility in agar.)
Assay [2] deals with Staphylococcus aureus. Nature of the assay: Antibacterial activity against methicillin-resistant Staphylococcus aureus at 50 ug/disk by agar disk diffusion assay. The assay is classed as functional. As to conditions: for zone of inhibition at 50 µg/disc: read-out: IZ.
In assay [3] the test system is Enterococcus faecium. Nature of the assay: Antibacterial activity against Enterococcus faecium at 25 ug/disk by agar disk diffusion assay. The assay is classed as functional. The settings on record: read-out: IZ.
The test system of assay [4] is Enterococcus faecium. Nature of the assay: Antibacterial activity against Enterococcus faecium by microbroth dilution assay. Format: functional. (Broth dilution looks for growth in wells or tubes with falling amounts of substance.)
In assay [5] the test system is Staphylococcus aureus. Put plainly: Antibacterial activity against Staphylococcus aureus at 10 ug/disk by agar disk diffusion assay. The assay is classed as functional. As to conditions: read-out: IZ.
Assay [6] concerns Staphylococcus aureus. Put plainly: Antibacterial activity against methicillin-resistant Staphylococcus aureus at 10 ug/disk by agar disk diffusion assay. Format: functional. The settings on record: read-out: IZ.
The test system of assay [7] is Enterococcus. Nature of the assay: Antibacterial activity against vancomycin-resistant Enterococcus at 25 ug/disk by agar disk diffusion assay. The settings on record: read-out: IZ. The assay is classed as functional.
Assay [8] concerns Enterococcus. Nature of the assay: Antibacterial activity against vancomycin-resistant Enterococcus by microbroth dilution assay. The assay is classed as functional.
For assay [9], the system named is Staphylococcus aureus. Nature of the assay: Antibacterial activity against Staphylococcus aureus by microbroth dilution assay. The assay is classed as functional.
Assay [10] deals with Staphylococcus aureus. Nature of the assay: Antibacterial activity against methicillin-resistant Staphylococcus aureus by microbroth dilution assay. Format: functional.
The subject of assay [11] is Enterococcus. Nature of the assay: Antibacterial activity against vancomycin-resistant Enterococcus at 10 ug/disk by agar disk diffusion assay. The settings on record: read-out: IZ. The assay is classed as functional.
Assay [12] concerns Enterococcus. Put plainly: Antibacterial activity against vancomycin-resistant Enterococcus at 5 ug/disk by agar disk diffusion assay. The assay is classed as functional. As to conditions: read-out: IZ.
Assay [13] relates to Enterococcus faecium. Put plainly: Antibacterial activity against Enterococcus faecium at 10 ug/disk by agar disk diffusion assay. The assay is classed as functional. The settings on record: read-out: IZ.
The subject of assay [14] is Staphylococcus aureus. Put plainly: Antibacterial activity against methicillin-resistant Staphylococcus aureus at 25 ug/disk by agar disk diffusion assay. The settings on record: read-out: IZ. The assay is classed as functional.
The subject of assay [15] is Staphylococcus aureus. Put plainly: Antibacterial activity against Staphylococcus aureus at 25 ug/disk by agar disk diffusion assay. Format: functional. The settings on record: read-out: IZ.
In assay [16] the test system is Enterococcus faecium. Put plainly: Antibacterial activity against Enterococcus faecium at 5 ug/disk by agar disk diffusion assay. As to conditions: read-out: IZ. The assay is classed as functional.
Assay [17] relates to Enterococcus. Put plainly: Antibacterial activity against vancomycin-resistant Enterococcus at 50 ug/disk by agar disk diffusion assay. Format: functional, organism-based.
The test system of assay [18] is Enterococcus faecium. Put plainly: Antibacterial activity against Enterococcus faecium at 50 ug/disk by agar disk diffusion assay. The assay is classed as functional, organism-based.

As to `O=C(O)/C=C/CCCCCCCCCC=C(Br)Br` [MOTUALEVIC ACID E], the zone of inhibition at 50 µg/disc in the assay with Staphylococcus aureus [1] is 8 mm. The “inhibition zone (IZ)” value with Staphylococcus aureus [2] was “inactive”.

In the case of `C[N+](C)(C)CCNC(=O)/C=C/CCCCCCCCCC=C(Br)Br.[Cl-]`, the zone of inhibition at 25 µg/disc with Enterococcus faecium [3] and with Enterococcus [7] was 8 mm in each case. The MIC against Enterococcus faecium [4] worked out at 3.7 µg/mL; against Enterococcus [8], 5.2 µg/mL; in the assay with Staphylococcus aureus [9], 2.4 µg/mL; with Staphylococcus aureus [10], 4.2 µg/mL. Moreover, the zone of inhibition at 10 µg/disc in the assay with Staphylococcus aureus [5] and in the assay on Staphylococcus aureus [6] was 8 mm each time.

With `O=C(O)CCNC(=O)/C=C/CCCCCCCCCC=C(Br)Br`, the zone of inhibition at 25 µg/disc in the assay with Enterococcus faecium [3] and with Enterococcus [7] was 8 mm in each case. Moreover, the MIC against Enterococcus faecium [4] is 11 µg/mL (≈ 24.3 µM); with Enterococcus [8], 12 µg/mL (≈ 26.5 µM); against Staphylococcus aureus [9] it was 3.6 µg/mL (≈ 7.94 µM); with Staphylococcus aureus [10], 3.3 µg/mL (≈ 7.28 µM). For the same compound, the zone of inhibition at 10 µg/disc in the assay with Enterococcus [11], in the assay on Staphylococcus aureus [5] and with Staphylococcus aureus [6] was 8 mm each time.

Consider `CC(C)C[C@H](NC(=O)/C=C/CCCCCCCCCC=C(Br)Br)C(=O)O`, for which, in the assay on Enterococcus [12], the zone of inhibition at 5 µg/disc was 8 mm. For the same compound, the minimal inhibitory concentration (MIC) against Enterococcus faecium [4] is 6.4 µg/mL (≈ 12.9 µM); against Enterococcus [8], 3.7 µg/mL (≈ 7.47 µM); in the assay with Staphylococcus aureus [9], 2.3 µg/mL (≈ 4.64 µM); against Staphylococcus aureus [10], 2.9 µg/mL (≈ 5.86 µM). Also, the zone of inhibition at 10 µg/disc in the assay on Enterococcus faecium [13] was determined as 8 mm. Further, the zone of inhibition at 25 µg/disc in the assay on Staphylococcus aureus [14] and in the assay with Staphylococcus aureus [15] was 8 mm each time.

For the compound `O=C(O)CNC(=O)/C=C/CCCCCCCCCC=C(Br)Br` [MOTUALEVIC ACID A], the zone of inhibition at 25 µg/disc with Enterococcus faecium [3] and in the assay with Enterococcus [7] was 8 mm each time. In addition, the MIC was found to be 9.3 µg/mL (≈ 21.2 µM) against Enterococcus faecium [4], 12 µg/mL (≈ 27.3 µM) in the assay on Enterococcus [8], 11 µg/mL (≈ 25 µM) against Staphylococcus aureus [9] and 9.3 µg/mL (≈ 21.2 µM) against Staphylococcus aureus [10]. Besides, the zone of inhibition at 10 µg/disc in the assay on Enterococcus [11], with Staphylococcus aureus [5] and in the assay with Staphylococcus aureus [6] was 8 mm throughout.

Regarding `O=C(O)[C@@H]1CCCN1C(=O)/C=C/CCCCCCCCCC=C(Br)Br`, the zone of inhibition at 5 µg/disc with Enterococcus [12] came to 8 mm. The zone of inhibition at 25 µg/disc in the assay with Enterococcus faecium [3] and with Staphylococcus aureus [15] was 8 mm in each case. Besides, the minimal inhibitory concentration (MIC) in the assay on Enterococcus faecium [4] is 10 µg/mL (≈ 20.9 µM); against Enterococcus [8] it was 12 µg/mL (≈ 25 µM); in the assay on Staphylococcus aureus [9] it was 10 µg/mL (≈ 20.9 µM); against Staphylococcus aureus [10], 9 µg/mL (≈ 18.8 µM). For the same compound, in the assay on Staphylococcus aureus [6], the zone of inhibition at 10 µg/disc was 8 mm.

As to `O=C(/C=C/CCCCCCCCCC=C(Br)Br)N[C@H](C(=O)O)c1ccccc1`, the MIC was found to be 25 µg/mL (≈ 48.5 µM) in the assay on Enterococcus faecium [4], 22 µg/mL (≈ 42.7 µM) against Enterococcus [8], 17 µg/mL (≈ 33 µM) against Staphylococcus aureus [9] and 21 µg/mL (≈ 40.8 µM) against Staphylococcus aureus [10]. Moreover, the zone of inhibition at 10 µg/disc with Enterococcus [11] and in the assay with Enterococcus faecium [13] was 8 mm throughout. Besides, the zone of inhibition at 25 µg/disc in the assay on Staphylococcus aureus [14], in the assay on Enterococcus [7] and in the assay on Staphylococcus aureus [15] was 8 mm in each case.

As for `O=C(/C=C/CCCCCCCCCC=C(Br)Br)N[C@@H](Cc1ccccc1)C(=O)O`, the zone of inhibition at 5 µg/disc in the assay with Enterococcus [12] and in the assay with Enterococcus faecium [16] was 8 mm throughout. Also, the minimum inhibitory concentration (MIC) in the assay with Enterococcus faecium [4] turned out to be 6.3 µg/mL (≈ 11.9 µM); against Enterococcus [8], 2.9 µg/mL (≈ 5.48 µM); against Staphylococcus aureus [9] it was 5 µg/mL (≈ 9.45 µM); with Staphylococcus aureus [10] it was 4.4 µg/mL (≈ 8.31 µM). The “inhibition zone (IZ)” value with Staphylococcus aureus [1] is “inactive”. In addition, in the assay on Staphylococcus aureus [2], the zone of inhibition at 50 µg/disc is 8 mm.

As for `CN(C)C(=O)CNC(=O)/C=C/CCCCCCCCCC=C(Br)Br`, the “inhibition zone (IZ)” value in the assay on Staphylococcus aureus [1] and with Staphylococcus aureus [2] was “inactive” in each case.

Consider `NC(=O)CNC(=O)/C=C/CCCCCCCCCC=C(Br)Br`, for which the “inhibition zone (IZ)” value in the assay with Staphylococcus aureus [1] and in the assay on Staphylococcus aureus [2] was “inactive” throughout.

For the compound `O=C(O)[C@@H]1C[C@H](O)CN1C(=O)/C=C/CCCCCCCCCC=C(Br)Br`, the zone of inhibition at 25 µg/disc with Enterococcus faecium [3], in the assay with Staphylococcus aureus [14] and with Enterococcus [7] was 8 mm throughout. In addition, in the assay with Staphylococcus aureus [1], the “inhibition zone (IZ)” value was “inactive”.

For `CCC/C=C/C(=O)NCC(=O)O`, the “inhibition zone (IZ)” value with Staphylococcus aureus [1] and in the assay with Staphylococcus aureus [2] was “inactive” throughout.

For `CCCCCCCCC/C=C/C(=O)NCC(=O)O`, the “inhibition zone (IZ)” value in the assay on Staphylococcus aureus [1] and with Staphylococcus aureus [2] was “inactive” in each case.

As to `O=C(O)CNC(=O)/C=C/CCCCCCCC=C(Br)Br`, the zone of inhibition at 50 µg/disc in the assay on Staphylococcus aureus [1] and with Staphylococcus aureus [2] was 8 mm in each case.

For `O=C(O)CCCCCCCNC(=O)/C=C/CCC=C(Br)Br`, the zone of inhibition at 25 µg/disc with Staphylococcus aureus [14] and in the assay with Staphylococcus aureus [15] was 8 mm throughout.

`O=C(O)[C@H]1CCCN1C(=O)/C=C/CCCCCCCCCC=C(Br)Br`: the zone of inhibition at 25 µg/disc in the assay with Enterococcus faecium [3], in the assay with Staphylococcus aureus [14], in the assay with Enterococcus [7] and with Staphylococcus aureus [15] was 8 mm in each case. In addition, the MIC against Enterococcus faecium [4] was 15 µg/mL (≈ 31.3 µM); against Enterococcus [8] it was 11 µg/mL (≈ 23 µM); against Staphylococcus aureus [9], 18 µg/mL (≈ 37.6 µM); against Staphylococcus aureus [10], 19 µg/mL (≈ 39.6 µM). Further, the zone of inhibition at 10 µg/disc in the assay on Enterococcus [11] worked out at 8 mm.

With `O=C(O)CNC(=O)/C=C/CCC=C(Br)Br`, the “inhibition zone (IZ)” value with Staphylococcus aureus [1] and in the assay on Staphylococcus aureus [2] was “inactive” each time.

On to `O=C(O)C[C@H](NC(=O)/C=C/CCCCCCCCCC=C(Br)Br)C(=O)O`, for which the MIC result with Enterococcus faecium [4], in the assay with Enterococcus [8], in the assay with Staphylococcus aureus [9] and in the assay on Staphylococcus aureus [10] was “inactive” in each case. In addition, the “inhibition zone (IZ)” value in the assay with Staphylococcus aureus [1], in the assay on Enterococcus [17] and in the assay with Enterococcus faecium [18] was “inactive” throughout.

On to `O=C(O)CN(CC(=O)O)C(=O)/C=C/CCCCCCCCCC=C(Br)Br`, for which the MIC entry with Enterococcus faecium [4], in the assay with Enterococcus [8], in the assay on Staphylococcus aureus [9] and in the assay on Staphylococcus aureus [10] was “inactive” in each case. The zone of inhibition at 50 µg/disc in the assay on Staphylococcus aureus [1] and in the assay with Staphylococcus aureus [2] was 8 mm each time. In addition, the “inhibition zone (IZ)” value in the assay with Enterococcus [17] and in the assay on Enterococcus faecium [18] was “inactive” each time.

On to `O=C(O)CCCNC(=O)/C=C/CCCCCCCCCC=C(Br)Br`, for which the MIC in the assay on Enterococcus faecium [4] came to 11 µg/mL (≈ 23.5 µM); against Enterococcus [8], 8.5 µg/mL (≈ 18.2 µM); with Staphylococcus aureus [9] it was 2.5 µg/mL (≈ 5.35 µM); with Staphylococcus aureus [10] it was 2.4 µg/mL (≈ 5.14 µM). Further, the zone of inhibition at 10 µg/disc in the assay on Enterococcus [11] and in the assay with Enterococcus faecium [13] was 8 mm throughout. The zone of inhibition at 25 µg/disc in the assay with Staphylococcus aureus [14], in the assay with Enterococcus [7] and with Staphylococcus aureus [15] was 8 mm throughout.
